The source of these data is patent US8557233B2, “Probiotic bifidobacterium strains” (Alimentary Heath Limited, priority 2007, dated 2013).

Molecules are shown by their SMILES.

The test concerns B. longum AH1206. Nature of the test: Minimum inhibitory concentration (MIC) of antibiotics. The conditions noted are these: against B. longum AH1206. It is filed as cell-based, Bifidobacterium longum. As for the experimental part: Antibiotic sensitivity profiles of the B. longum strain was determined using the ‘disc susceptibility’ assay. Cultures were grown up in the appropriate broth medium for 24-48 h spread-plated (100 μl) onto agar media and discs containing known concentrations of the antibiotics were placed onto the agar. Strains were examined for antibiotic sensitivity after 1-2 days incubation at 37° C. under anaerobic conditions. Strains were considered sensitive if zones of inhibition of 1 mm or greater were seen. The minimum inhibitory concentration (MIC) for each antibiotic was independently assessed.
Consider `CCC[C@@H]1C[C@@H](C(=O)N[C@@H]([C@H]2O[C@H](SC)[C@H](O)[C@@H](O)[C@H]2O)[C@H](C)Cl)N(C)C1` [clindamycin], for which the “minimum inhibitory concentration (MIC)” value is listed as 0.32.

As for `Cc1ncc([N+](=O)[O-])n1CCO` [metronidazole], the “minimum inhibitory concentration (MIC)” value turned out to be 0.38.

As to `CN[C@H](CC(C)C)C(=O)N[C@H]1C(=O)N[C@@H](CC(N)=O)C(=O)N[C@H]2C(=O)N[C@H]3C(=O)N[C@H](C(=O)N[C@H](C(=O)O)c4cc(O)cc(O)c4-c4cc3ccc4O)[C@H](O)c3ccc(c(Cl)c3)Oc3cc2cc(c3O[C@@H]2O[C@H](CO)[C@@H](O)[C@H](O)[C@H]2O[C@H]2C[C@](C)(N)[C@H](O)[C@H](C)O2)Oc2ccc(cc2Cl)[C@H]1O` [vancomycin], the “minimum inhibitory concentration (MIC)” value worked out at 0.75.
